{"source": "patent US6066628A", "about": "“Non-iron metalloporphyrins and methods of use” (Emory University, priority 1998, dated 2000)", "key": {"M. bovis": {"system": "M. bovis", "type": "cell-based, Mycobacterium bovis", "settings": "disc ~50 μg MP"}, "Ps. aeruginosa": {"system": "Ps. aeruginosa", "assay": "Disc diffusion sensitivity test", "type": "cell-based, Pseudomonas aeruginosa", "settings": "disc ~50 μg MP"}, "E. aerogenes": {"system": "E. aerogenes", "assay": "Disc diffusion sensitivity test", "type": "cell-based, Enterobacter aerogenes"}, "[1]": {"system": "Mycobacterium bovis (BCG)", "type": "cell-based"}, "Y. enterocolitica [2]": {"system": "Y. enterocolitica", "assay": "microbe, parasite or virus in culture", "type": "cell-based"}, "Staphylococcus carnosus": {"system": "Staphylococcus carnosus", "assay": "Disc diffusion sensitivity test", "type": "cell-based", "settings": "50 μg disc"}, "[3]": {"system": "Streptococcus pyogenes JRS4", "type": "cell-based"}, "E. faecalis": {"system": "E. faecalis", "assay": "Disc diffusion sensitivity test", "type": "cell-based, Enterococcus faecalis", "settings": "disc ~50 μg MP"}, "Y. pseudotuberculosis": {"system": "Y. pseudotuberculosis", "type": "cell-based"}, "C. freundii": {"system": "C. freundii", "assay": "Disc diffusion sensitivity test", "type": "cell-based, Citrobacter freundii"}, "K. pneumoniae": {"system": "K. pneumoniae", "assay": "Disc diffusion sensitivity test", "type": "cell-based, Klebsiella pneumoniae"}, "F. menigosepticum": {"system": "F. menigosepticum", "assay": "Disc diffusion sensitivity test", "type": "cell-based, Flavobacterium meningosepticum"}, "S. marcescens": {"system": "S. marcescens", "assay": "Disc diffusion sensitivity test", "type": "cell-based, Serratia marcescens"}, "N. meningitidis": {"system": "N. meningitidis", "assay": "Disc diffusion sensitivity test", "type": "cell-based", "settings": "disc ~50 μg MP"}, "E. coli [4]": {"system": "E. coli", "assay": "Disc diffusion sensitivity test", "type": "cell-based, Escherichia coli"}, "S. pyogenes A": {"system": "S. pyogenes A", "assay": "Disc diffusion sensitivity test", "type": "cell-based, Streptococcus pyogenes", "settings": "disc ~50 μg MP"}, "Staphylococcus xylolus": {"system": "Staphylococcus xylolus", "assay": "Disc diffusion sensitivity test", "type": "cell-based", "settings": "50 μg disc"}, "P. mirabills": {"system": "P. mirabills", "assay": "Disc diffusion sensitivity test", "type": "cell-based, Proteus mirabilis"}, "K. oxytoca": {"system": "K. oxytoca", "assay": "Disc diffusion sensitivity test", "type": "cell-based, Klebsiella oxytoca"}, "S. aureus [5]": {"system": "S. aureus", "type": "cell-based, Staphylococcus aureus"}, "S. crevisieae": {"system": "S. crevisieae", "assay": "Disc diffusion sensitivity test", "type": "cell-based, Saccharomyces cerevisiae", "settings": "S. cerevisiae; disc ~50 μg MP"}, "M. smegmatis [6]": {"system": "M. smegmatis", "type": "cell-based, Mycobacterium smegmatis", "settings": "for antibacterial activity: M. smegmatis"}, "M tuber. H37Rv": {"system": "M tuber. H37Rv", "assay": "Disc diffusion sensitivity test", "type": "cell-based, Mycobacterium tuberculosis", "settings": "disc ~50 μg MP"}, "M. smegmatis [7]": {"system": "M. smegmatis", "assay": "Disc diffusion sensitivity test", "type": "cell-based, Mycobacterium smegmatis", "settings": "disc ~50 μg MP"}, "B. subtilis": {"system": "B. subtilis", "assay": "Disc diffusion sensitivity test", "type": "cell-based, Bacillus subtilis", "settings": "B. subtilis; disc ~50 μg MP"}, "Neisseria meningitidis": {"system": "Neisseria meningitidis", "assay": "Minimal inhibitory concentration", "type": "cell-based"}, "Bacillus subtilis": {"system": "Bacillus subtilis", "assay": "Minimal inhibitory concentration", "type": "cell-based"}, "S. aureus [8]": {"system": "S. aureus", "assay": "Disc diffusion sensitivity test", "type": "cell-based, Staphylococcus aureus"}, "M tuber. H37Pa": {"system": "M tuber. H37Pa", "assay": "Disc diffusion sensitivity test", "type": "cell-based, Mycobacterium tuberculosis", "settings": "disc ~50 μg MP"}, "E. coli [9]": {"system": "E. coli", "type": "cell-based, Escherichia coli", "settings": "E. coli DH-5 alpha hemA (Table 6)"}, "Y. enterocolitica [10]": {"system": "Y. enterocolitica", "assay": "Disc diffusion sensitivity test", "type": "cell-based", "settings": "disc ~50 μg MP"}, "E. coli EB53 (hemPR^+)": {"system": "E. coli EB53 (hemPR^+)", "assay": "Growth inhibition on Nutrient Broth Dipyridyl plates", "settings": "NBD 0.1 mM plates"}, "[11]": {"system": "mammalian cells in culture", "assay": "Cytotoxicity in eukaryotic cell cultures", "type": "cell-based", "settings": "human cells in culture"}, "patients": {"system": "patients", "settings": "patients with compromised kidney function, high dosages; cited from earlier work"}}, "note": "Where “and” joins values, the source holds several entries; their conditions need not be identical. Identical values can stand only once. Like-named read-outs stand apart in the source and are kept apart here."}
{"smiles": "C=CC1=C(C)c2cc3[n-]c(cc4[n-]c(cc5nc(cc1n2)C(C)=C5C=C)c(C)c4CCC(=O)[O-])c(CCC(=O)[O-])c3C.[H+].[H+].[Mn+2]", "note": "[Mn-PPIX, Manganese protoporphyrin IX]", "values": [{"measurement": "diameter (mm) of the inhibition zone", "setting": "M. bovis", "result": 35, "unit": "mm"}, {"measurement": "diameter (mm) of the inhibition zone", "setting": "Ps. aeruginosa", "result": "-"}, {"measurement": "diameter (mm) of the inhibition zone", "setting": "E. aerogenes; E. aerogenes, disc ~50 μg MP", "result": "-"}, {"measurement": "sensitive strains / strains tested (inhibition zones larger or equal 20 mm)", "setting": "E. aerogenes; Enterobacter aerogenes, 50 μg disc", "result": "1/1"}, {"measurement": "MIC", "setting": "[1]; M. bovis (BCG) (Table 4)", "result": 0.8, "unit": "µg/mL"}, {"measurement": "MIC", "setting": "[1]; M. bovis (BCG), two weeks (Table 5)", "result": 0.8, "unit": "µg/mL"}, {"measurement": "Minimal inhibitory concentration (MIC)", "setting": "Y. enterocolitica [2]", "result": 0.4}, {"measurement": "antibacterial activity", "setting": "Y. enterocolitica [2]", "result": "inhibitory"}, {"measurement": "sensitive strains / strains tested (inhibition zones larger or equal 20 mm)", "setting": "Staphylococcus carnosus", "result": "1/1"}, {"measurement": "sensitivity", "setting": "[3]; S. pyogenes", "result": "resistant"}, {"measurement": "MIC", "setting": "[3]; S. pyogenes JRS4 (Table 4)", "result": "> 4", "unit": "µg/mL"}, {"measurement": "MIC", "setting": "[3]; S. pyogenes JRS4, 20 to 24 hours (Table 5)", "result": "> 4", "unit": "µg/mL"}, {"measurement": "diameter (mm) of the inhibition zone", "setting": "E. faecalis", "result": "-"}, {"measurement": "MIC", "setting": "Y. pseudotuberculosis; Y. pseudotuberculosis YP66 (Table 4)", "result": "< 0.1", "unit": "µg/mL"}, {"measurement": "MIC", "setting": "Y. pseudotuberculosis; Y. pseudotuberculosis YP66 (Table 6), in µg/mL", "result": "1-2"}, {"measurement": "MIC", "setting": "Y. pseudotuberculosis; Y. pseudotuberculosis, iron restricted NBD 0.1 mM, 20 to 24 hours (Table 5)", "result": "1 to 2", "unit": "µg/mL"}, {"measurement": "diameter (mm) of the inhibition zone", "setting": "C. freundii; C. freundii, disc ~50 μg MP", "result": 22, "unit": "mm"}, {"measurement": "sensitive strains / strains tested (inhibition zones larger or equal 20 mm)", "setting": "C. freundii; Citrobacter freundii, 50 μg disc", "result": "4/4"}, {"measurement": "diameter (mm) of the inhibition zone", "setting": "K. pneumoniae; K. pneumoniae, disc ~50 μg MP", "result": "-"}, {"measurement": "sensitive strains / strains tested (inhibition zones larger or equal 20 mm)", "setting": "K. pneumoniae; Klebsiella pneumoniae, 50 μg disc", "result": "9/13"}, {"measurement": "diameter (mm) of the inhibition zone", "setting": "F. menigosepticum; F. meningosepticum, disc ~50 μg MP", "result": 17, "unit": "mm"}, {"measurement": "sensitive strains / strains tested (inhibition zones larger or equal 20 mm)", "setting": "F. menigosepticum; Flavobacterium meningosepticum, 50 μg disc", "result": "1/1"}, {"measurement": "diameter (mm) of the inhibition zone", "setting": "S. marcescens; S. marcescens, disc ~50 μg MP", "result": "-"}, {"measurement": "sensitive strains / strains tested (inhibition zones larger or equal 20 mm)", "setting": "S. marcescens; Serratia marcescens, 50 μg disc", "result": "2/3"}, {"measurement": "diameter (mm) of the inhibition zone", "setting": "N. meningitidis", "result": 18, "unit": "mm"}, {"measurement": "diameter (mm) of the inhibition zone", "setting": "E. coli [4]; E. coli, disc ~50 μg MP", "result": "-"}, {"measurement": "sensitive strains / strains tested (inhibition zones larger or equal 20 mm)", "setting": "E. coli [4]; Escherichia coli, 50 μg disc", "result": "16/18"}, {"measurement": "diameter (mm) of the inhibition zone", "setting": "S. pyogenes A", "result": "-"}, {"measurement": "sensitive strains / strains tested (inhibition zones larger or equal 20 mm)", "setting": "Staphylococcus xylolus", "result": "1/1"}, {"measurement": "diameter (mm) of the inhibition zone", "setting": "P. mirabills; P. mirabilis, disc ~50 μg MP", "result": 22, "unit": "mm"}, {"measurement": "sensitive strains / strains tested (inhibition zones larger or equal 20 mm)", "setting": "P. mirabills; Proteus mirabilis, 50 μg disc", "result": "2/2"}, {"measurement": "diameter (mm) of the inhibition zone", "setting": "K. oxytoca; K. oxytoca, disc ~50 μg MP", "result": "-"}, {"measurement": "sensitive strains / strains tested (inhibition zones larger or equal 20 mm)", "setting": "K. oxytoca; Klebsiella oxytoca, 50 μg disc", "result": "1/1"}, {"measurement": "MIC", "setting": "S. aureus [5]; S. aureus 8325-4 (Table 4)", "result": 1, "unit": "µg/mL"}, {"measurement": "MIC", "setting": "S. aureus [5]; S. aureus 8325-4 (Table 6), in µg/mL", "result": 3}, {"measurement": "MIC", "setting": "S. aureus [5]; S. aureus 8325-4, 20 to 24 hours (Table 5)", "result": 3, "unit": "µg/mL"}, {"measurement": "Minimal inhibitory concentration (MIC)", "setting": "S. aureus [5]; methicillin-resistant S. aureus IR219, Nutrient broth (Table 2)", "result": 3.2, "unit": "µg/mL"}, {"measurement": "diameter (mm) of the inhibition zone", "setting": "S. crevisieae", "result": "-"}, {"measurement": "antibacterial activity", "setting": "M. smegmatis [6]", "result": "inhibitory"}, {"measurement": "MIC", "setting": "M. smegmatis [6]; M. smegmatis LR222 (Table 4)", "result": 0.5, "unit": "µg/mL"}, {"measurement": "Minimal inhibitory concentration (MIC)", "setting": "M. smegmatis [6]; M. smegmatis LR222, LB + Tween 80 (Table 2)", "result": 0.8, "unit": "µg/mL"}, {"measurement": "diameter (mm) of the inhibition zone", "setting": "M tuber. H37Rv", "result": "-"}, {"measurement": "diameter (mm) of the inhibition zone", "setting": "M. smegmatis [7]", "result": 25, "unit": "mm"}, {"measurement": "diameter (mm) of the inhibition zone", "setting": "B. subtilis", "result": 25, "unit": "mm"}, {"measurement": "MIC", "setting": "Neisseria meningitidis; N. meningitidis IR1072, 20 to 24 hours (Table 5)", "result": 2, "unit": "µg/mL"}, {"measurement": "MIC", "setting": "Neisseria meningitidis; Neisseria meningitidis (Table 4)", "result": 2, "unit": "µg/mL"}, {"measurement": "MIC", "setting": "Bacillus subtilis; B. subtilis 3G18, 20 to 24 hours (Table 5)", "result": 1, "unit": "µg/mL"}, {"measurement": "MIC", "setting": "Bacillus subtilis; Bacillus subtilis (Table 4)", "result": 1, "unit": "µg/mL"}, {"measurement": "diameter (mm) of the inhibition zone", "setting": "S. aureus [8]; S. aureus, disc ~50 μg MP", "result": 23, "unit": "mm"}, {"measurement": "sensitive strains / strains tested (inhibition zones larger or equal 20 mm)", "setting": "S. aureus [8]; Staphylococcus aureus, 50 μg disc", "result": "9/9"}, {"measurement": "diameter (mm) of the inhibition zone", "setting": "M tuber. H37Pa", "result": "-"}, {"measurement": "MIC", "setting": "E. coli [9]", "result": "> 10", "unit": "µg/mL"}, {"measurement": "diameter (mm) of the inhibition zone", "setting": "Y. enterocolitica [10]", "result": 30, "unit": "mm"}, {"measurement": "inhibition of growth", "setting": "E. coli EB53 (hemPR^+)", "result": "inhibited growth"}]}
{"smiles": "C=Cc1c(C)c2[n]3c1C=C1N=C(C=c4c(C)c(C(=O)O)c([n]4[Ga]3[Cl])=C(CC(=O)O)C3=NC(=C2)C(C)C3CCC(=O)O)C(CC)=C1C", "note": "(centres unmarked) [GA-Ce6, Ga-chlorin e6]", "values": [{"measurement": "cytotoxicity", "setting": "[11]", "result": "cytotoxic to human cells in culture"}, {"measurement": "antibacterial activity", "setting": "Y. enterocolitica [2]", "result": "significantly less active"}, {"measurement": "MIC", "setting": "Y. enterocolitica [2]; in µg/mL", "result": "5 and 10"}, {"measurement": "antibacterial activity", "setting": "S. aureus [5]; S. aureus", "result": "active"}, {"measurement": "MIC", "setting": "S. aureus [5]; S. aureus IR2419, dark (Table 10)", "result": 3.2, "unit": "µg/mL"}, {"measurement": "antibacterial activity", "setting": "M. smegmatis [6]", "result": "active"}, {"measurement": "MIC", "setting": "M. smegmatis [6]; M. smegmatis LR222, dark (Table 10)", "result": 0.4, "unit": "µg/mL"}]}
{"smiles": "O=[N+]([O-])[O-].O=[N+]([O-])[O-].O=[N+]([O-])[O-].[Ga+3]", "note": "[gallium nitrate, Gallium nitrate]", "values": [{"measurement": "major complication of treatment", "setting": "patients", "result": "Reversible nephrotoxicity"}]}
